Data: a compilation of properties of binary mixtures (doi:10.1021/acs.jced.5b00338)

Test: xn = mol fraction of the nth substance listed
Conditions: 100 kPa

O=C1OCCO1 + CC[n+]1ccn(C)c1.O=S(=O)([N-]S(=O)(=O)C(F)(F)F)C(F)(F)F
Conditions	electrical conductivity [S/m]	viscosity [mPa·s]
293.15 K, x1 = 0.33	1.02	–
293.15 K, x1 = 0.5263	–	15.1
293.15 K, x1 = 0.53	1.24	–
293.15 K, x1 = 0.7476	–	8.1
293.15 K, x1 = 0.75	1.57	–
293.15 K, x1 = 0.82	1.52	–
293.15 K, x1 = 0.87	1.44	–
293.15 K, x1 = 0.91	1.33	–
293.15 K, x1 = 0.95	1.03	–
303.15 K, x1 = 0.8163	–	4.1
303.15 K, x1 = 0.9467	–	3
313.15 K, x1 = 0.33	1.68	–
313.15 K, x1 = 0.5263	–	9
313.15 K, x1 = 0.53	1.97	–
313.15 K, x1 = 0.66	2.32	–
313.15 K, x1 = 0.7476	–	4.6
313.15 K, x1 = 0.75	2.34	–
313.15 K, x1 = 0.8163	–	3.4
313.15 K, x1 = 0.82	2.23	–
313.15 K, x1 = 0.87	2.05	–
313.15 K, x1 = 0.91	1.86	–
313.15 K, x1 = 0.9467	–	2.4
313.15 K, x1 = 0.98	0.85	–
313.15 K, x1 = 1	–	1.81
323.15 K, x1 = 0.5263	–	7.1
323.15 K, x1 = 0.7476	–	3.9
323.15 K, x1 = 0.8163	–	2.8
323.15 K, x1 = 0.9467	–	2.1
323.15 K, x1 = 1	–	1.56
333.15 K, x1 = 0.5263	–	5.8
333.15 K, x1 = 0.53	2.71	–
333.15 K, x1 = 0.66	3.2	–
333.15 K, x1 = 0.7476	–	3.3
333.15 K, x1 = 0.75	3.18	–
333.15 K, x1 = 0.82	2.98	–
333.15 K, x1 = 0.87	2.7	–
333.15 K, x1 = 0.91	2.45	–
333.15 K, x1 = 0.9467	–	1.84
333.15 K, x1 = 0.98	1.1	–
333.15 K, x1 = 1	–	1.4
343.15 K, x1 = 0.7476	–	2.7
343.15 K, x1 = 0.8163	–	1.97
343.15 K, x1 = 0.9467	–	1.48
353.15 K, x1 = 0.33	3.29	–
353.15 K, x1 = 0.5263	–	4
353.15 K, x1 = 0.53	4.04	–
353.15 K, x1 = 0.7476	–	2.3
353.15 K, x1 = 0.75	4.43	–
353.15 K, x1 = 0.8163	–	1.74
353.15 K, x1 = 0.87	3.59	–
353.15 K, x1 = 0.91	3.01	–
353.15 K, x1 = 0.95	2.29	–
353.15 K, x1 = 1	–	1.07
363.15 K, x1 = 0.5263	–	3.4
363.15 K, x1 = 0.7476	–	2.03
363.15 K, x1 = 0.9467	–	1.2
363.15 K, x1 = 1	–	0.96
373.15 K, x1 = 0.7476	–	1.83
373.15 K, x1 = 0.8163	–	1.4
373.15 K, x1 = 0.9467	–	1.08
383.15 K, x1 = 0.5263	–	2.7
383.15 K, x1 = 0.8163	–	1.29
383.15 K, x1 = 0.9467	–	0.97
383.15 K, x1 = 1	–	0.74
393.15 K, x1 = 0.5263	–	2.4
393.15 K, x1 = 0.8163	–	1.19
393.15 K, x1 = 1	–	0.71

CC[n+]1ccn(C)c1.O=S(=O)([N-]S(=O)(=O)C(F)(F)F)C(F)(F)F + O=C1OCCO1
x2 = 0
Conditions	electrical conductivity [S/m]	viscosity [mPa·s]
293.15 K	0.73	41.6
298.15 K	0.9	33.9
303.15 K	–	27.3
313.15 K	1.29	19.1
323.15 K	–	14.4
333.15 K	1.94	11.3
343.15 K	–	8.3
353.15 K	2.73	6.8
363.15 K	–	5.6
373.15 K	–	4.8
